Assay results taken from PubChem BioAssay (NCI).
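Cultured in 96-well plates, cells were exposed to test compound for 48 hours across five concentrations. At the GI50, growth is halved. TGI: total growth inhibition.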

Tests used:
Experiment in all cases: growth of human tumour cells (NCI), 48 h
[1] = tested on: COLO 205 colon
[2] = tested on: U251 CNS
[3] = tested on: SK-MEL-2 melanoma
[4] = tested on: MDA-MB-435
[5] = tested on: IGROV1 ovarian
[6] = tested on: NCI-H23 lung
[7] = tested on: SW-620 colon
[8] = tested on: SK-MEL-28 melanoma
[9] = tested on: HOP-92 NSCLC
[10] = tested on: BT-549 breast
[11] = tested on: SK-OV-3 ovarian
[12] = tested on: NCI-H460 lung
[13] = tested on: HCT-116 colon
[14] = tested on: HCT-15 colon
[15] = tested on: MALME-3M melanoma
[16] = tested on: SF-539 CNS
[17] = tested on: PC-3 prostate
[18] = tested on: OVCAR-5 ovarian
[19] = tested on: SF-295 CNS
[20] = tested on: T-47D breast
[21] = tested on: MDA-MB-231 breast
[22] = tested on: HS 578T breast
[23] = tested on: K-562 leukemia
[24] = tested on: DU-145 prostate
[25] = tested on: HT29 colon
[26] = tested on: SK-MEL-5 melanoma
[27] = tested on: KM12 colon
[28] = tested on: UACC-257 melanoma
[29] = tested on: HOP-62 NSCLC
[30] = tested on: SF-268 CNS
[31] = tested on: A549 NSCLC
[32] = tested on: RPMI-8226 leukemia
[33] = tested on: M14 melanoma
[34] = tested on: SNB-75 CNS
[35] = tested on: SN12C renal
[36] = tested on: SR leukemia
[37] = tested on: EKVX NSCLC
[38] = tested on: TK-10 renal
[39] = tested on: UACC-62 melanoma
[40] = tested on: A498 renal
[41] = tested on: MDA-N
[42] = tested on: MOLT-4 leukemia
[43] = tested on: NCI/ADR-RES ovarian
[44] = tested on: RXF 393 renal
[45] = tested on: 786-0 renal
[46] = tested on: HCC-2998 colon
[47] = tested on: NCI-H226 lung
[48] = tested on: OVCAR-8 ovarian
[49] = tested on: CCRF-CEM leukemia
[50] = tested on: LOX IMVI melanoma
[51] = tested on: NCI-H522 lung
[52] = tested on: CAKI-1 renal
[53] = tested on: OVCAR-4 ovarian
[54] = tested on: MCF7 breast
[55] = tested on: ACHN renal
[56] = tested on: HL-60(TB) leukemia
[57] = tested on: OVCAR-3 ovarian
[58] = tested on: UO-31 renal
[59] = tested on: SNB-19 CNS

SMILES: [Cl][Hg][c]1ccc2ccccc2c1
- GI50 [1]: 2.3 µM
- TGI [1]: 5.18 µM
- GI50 [2]: 1.31 µM
- TGI [2]: 2.68 µM
- GI50 [3]: 1.6 µM
- TGI [3]: 3.92 µM
- GI50 [4]: 1.68 µM
- TGI [4]: 3.44 µM
- GI50 [5]: 1.31 µM
- TGI [5]: 3.02 µM
- GI50 [6]: 1.51 µM
- TGI [6]: 3.95 µM
- GI50 [7]: 1.77 µM
- TGI [7]: 3.62 µM
- GI50 [8]: 1.6 µM
- TGI [8]: 3.03 µM
- GI50 [9]: 1.92 µM
- TGI [9]: 3.46 µM
- GI50 [10]: 1.46 µM
- TGI [10]: 2.82 µM
- GI50 [11]: 3.87 µM
- TGI [11]: 9.44 µM
- GI50 [12]: 4.18 µM
- TGI [12]: 23.8 µM
- GI50 [13]: 3.18 µM
- TGI [13]: 7.59 µM
- GI50 [14]: 1.58 µM
- TGI [14]: 3.18 µM
- GI50 [15]: 1.78 µM
- TGI [15]: 3.4 µM
- GI50 [16]: 2.02 µM
- TGI [16]: 4.73 µM
- GI50 [17]: 3.92 µM
- TGI [17]: 11.8 µM
- GI50 [18]: 7.55 µM
- TGI [18]: 16.5 µM
- GI50 [19]: 7.01 µM
- TGI [19]: 18.9 µM
- GI50 [20]: 2.05 µM
- TGI [20]: 4.85 µM
- GI50 [21]: 1.74 µM
- TGI [21]: 3.5 µM
- GI50 [22]: 1.77 µM
- TGI [22]: 13.1 µM
- GI50 [23]: 0.862 µM
- TGI [23]: 9.77 µM
- GI50 [24]: 4.97 µM
- TGI [24]: 15.3 µM
- GI50 [25]: 2.8 µM
- TGI [25]: 9.58 µM
- GI50 [26]: 1.25 µM
- TGI [26]: 3.13 µM
- GI50 [27]: 7.66 µM
- TGI [27]: 22.6 µM
- GI50 [28]: 1.97 µM
- TGI [28]: 4.33 µM
- GI50 [29]: 3.93 µM
- TGI [29]: 11.8 µM
- GI50 [30]: 2.22 µM
- TGI [30]: 5.91 µM
- GI50 [31]: 12.1 µM
- TGI [31]: 27.1 µM
- GI50 [32]: 2.5 µM
- TGI [32]: 10.1 µM
- GI50 [33]: 1.46 µM
- TGI [33]: 2.96 µM
- GI50 [34]: 2.24 µM
- TGI [34]: 5.79 µM
- GI50 [35]: 1.76 µM
- TGI [35]: 3.57 µM
- GI50 [36]: 0.257 µM
- TGI [36]: 5.86 µM
- GI50 [37]: 3.07 µM
- TGI [37]: 7.96 µM
- GI50 [38]: 2.92 µM
- TGI [38]: 6.62 µM
- GI50 [39]: 1.81 µM
- TGI [39]: 4.45 µM
- GI50 [40]: 3.96 µM
- TGI [40]: 12.4 µM
- GI50 [41]: 1.5 µM
- TGI [41]: 2.88 µM
- GI50 [42]: 2.01 µM
- TGI [42]: 15.2 µM
- GI50 [43]: 2.41 µM
- TGI [43]: 8.84 µM
- GI50 [44]: 1.62 µM
- TGI [44]: 3.04 µM
- GI50 [45]: 1.76 µM
- TGI [45]: 3.21 µM
- GI50 [46]: 2.57 µM
- TGI [46]: 7.21 µM
- GI50 [47]: 14.2 µM
- TGI [47]: 36.3 µM
- GI50 [48]: 2.32 µM
- TGI [48]: 6.17 µM
- GI50 [49]: 0.924 µM
- TGI [49]: 9.32 µM
- GI50 [50]: 0.284 µM
- TGI [50]: 1.97 µM
- GI50 [51]: 0.821 µM
- TGI [51]: 2.37 µM
- GI50 [52]: 3.64 µM
- TGI [52]: 6.97 µM
- GI50 [53]: 2.69 µM
- TGI [53]: 6.71 µM
- GI50 [54]: 2.07 µM
- TGI [54]: 5.61 µM
- GI50 [55]: 4.33 µM
- TGI [55]: 11.8 µM
- GI50 [56]: 0.655 µM
- TGI [56]: 2.36 µM
- GI50 [57]: 1.79 µM
- TGI [57]: 3.63 µM
- GI50 [58]: 4.44 µM
- TGI [58]: 8.23 µM
- GI50 [59]: 2.22 µM
- TGI [59]: 5.21 µM
